Experimental data from PMC7297862, “In Vivo Tumor Growth Inhibition and Antiangiogenic Effect of Cyclic NGR Peptide-Daunorubicin Conjugates Developed for Targeted Drug Delivery” (Pathology Oncology Research, 2019).
Read-outs that look alike come from different tables or passages of the source.

How the values were obtained:
[1] = tested on: CD13(+) Kaposi's sarcoma cells (KS); assay: MTT antiproliferative assay on KS cells; assay type: cell-based; conditions: Homo sapiens, 24 h treatment followed by 48 h incubation in drug free medium, average ± SD
Description: (§1) KS (Kaposi’s sarcoma) derived from human Kaposi sarcoma and HT-29 (human colorectal adenocarcinoma) cell line obtained from ATCC were cultured in RPMI 1640 medium with glutamine (Roswell Park Memorial Institute Medium, Lonza, Basel, Switzerland), and MRC-5 (normal fibroblast) cells were cultured in DMEM (Dulbecco’s Modified Eagle’s Medium, Lonza). All media were supplemented with 10% heat-inactivated FBS (Fetal Bovine Serum, Euroclone, Milan, Italy), and with 1% penicillin/streptomycin (Sigma-Aldrich). Cells were cultured in sterile T25 or T75 flasks with ventilation cap (Sarstedt, Nümbrecht, Germany) at 37 °C in a humidified atmosphere with 5% CO2.
(§2) For evaluation of in vitro antiproliferative activity of NGR-Dau conjugates and free Dau, cell viability was determined by MTT assay (3-(4,5-dimethylthiazol-2-yl)-2,5-diphenyl-tetrazolium bromide (Sigma Aldrich)). […] The formazan crystals were dissolved in 100 μL of a 1:1 solution of DMSO (Sigma-Aldrich):EtOH (Molar Chemicals) and the absorbance was measured after 15 min at λ = 570 nm by using a microplate reader (Bio-Rad, model 550, Hercules, CA, USA). The IC50 values of the conjugates and free drug were calculated using GraphPad Prism 6 (GraphPad Software, San Diego, CA, USA). […]

[2] = tested on: CD13(−) HT-29 human colorectal adenocarcinoma cells; assay: MTT antiproliferative assay on HT-29 cells; assay type: cell-based; conditions: average ± SD
Description: as §1, §2

[3] = MTT antiproliferative assay on MRC-5 cells; assay type: cell-based; conditions: human, MRC-5 cells (normal, non-cancerous human fibroblasts), 72 h continuous treatment, average ± SD
Description: as §1, §2

[4] = tested on: subcutaneous Kaposi's sarcoma bearing SCID mice; assay: Subcutaneous Kaposi's sarcoma model; assay type: in vivo, mouse; conditions: KS s.c. model, free Dau 1 mg/kg 5 treatments
Text: (§3) The immunodeficient SCID mice on a C.B.-17 background were bred in specific opportunistic and pathogen free isolator breeding rooms. The breeding isolator was supplied with corn-cob bedding and standard VRF1 rodent chow and with acidified (pH = 3) sterilized distilled water. The mice from the breeding rooms were used for the subcutaneous model of KS and orthotopic model of human colon cancer. They were held in filter-top boxes in the experimental barrier rooms, and every box-opening was performed under a Class 100 laminar-flow hood. The animal housing density was in accordance with the international recommendations. The cage components, corn-cob bedding and food (VRF1 from Special Diet Services) were steam-sterilized in an autoclave (121 °C, 20 min). The animals used in these studies were cared for according to the “Guiding Principles for the Care and Use of Animals” based upon the Helsinki declaration, and they were approved by the local ethical committee. Permission license for breeding and performing experiments with laboratory animals: PEI/001/1738-3/2015 and PEI/001/2574–6/2015.
(§4) Kaposi’s sarcoma (KS) cells were injected into SCID female mice (19-24 g) (s.c.), 3 × 10^6 cells per animal in volume of 200 μL M199 medium per animal. Treatment started 35 days after cell inoculation when average tumor volume was 66 mm^3, by i.p. administration. […] Treatment volume was 0.2 mL/animal. Animal weight and tumor volumes were measured initially when the treatment started and at periodic intervals according to the treatment schedule. A digital caliper was used to measure the longest (a) and the shortest diameter (b) of a given tumor. The tumor volume was calculated using the formula V = ab^2 × π/6, whereby a and b represent the measured parameters (length and width). The experiment was terminated on day 70 after tumor transplantation (day 36 of treatment). The mice from all groups were sacrificed by cervical dislocation. Their primary tumors and livers were harvested and weighed.

[5] = tested on: orthotopic HT-29 human colon carcinoma bearing SCID mice; assay: Orthotopic HT-29 human colon tumor model; assay type: in vivo, mouse; conditions: orthotopic HT-29 model
Text: as §3
HT-29 human colon cancer cells were injected into SCID female mice subcutaneously (s.c.), 3 × 10^6 cells per animal in volume of 200 μL M199 medium per animal, in order to establish tumor for transplantation. After 2 weeks, the mice with palpable tumors were sacrificed by cervical dislocation, and the subcutaneous tumor was dissected out aseptically. Tumor pieces of 2 mm^3 were transplanted orthotopically, under aseptic conditions into anesthetized (narcotic mixture: tiletamine, zolazepam, xylazine, butorphanol) SCID female mice (19-25 g). A small midline incision (0.5 cm) was made and the colorectal part of the intestine was exteriorized. Serosa of the site where the tumor pieces were to be implanted were removed. Tumor tissue fragments of HT-29 human colon tumor were implanted on the top of the animal intestine; an 8/0 surgical (polypropylene) suture was used to suture it on the wall of the intestine. The intestine was returned to the abdominal cavity, and the abdominal wall was closed with 4/0 surgical (polyglycolic acid) sutures. The wound was sterilized and the animals were kept in a sterile environment. On the next day, no sign of pain and/or stress of the mice was observed. The treatments started 6 days after tumor transplantation by i.p. administration of the compounds dissolved in distilled water for injection. 8 mice per group were used.
One group of mice were treated with free Dau (1 mg/kg body weight) on days 6, 13 and 20 after tumor transplantation. Animal groups treated with compounds 1 and 2 were administered with a dose of 10 mg/kg Dau content (33.8 and 33.5 mg/kg of each conjugate, respectively) on days 6, 8, 10, 13, 17, 20 and 24 after tumor transplantation. Control group was treated with sterile water as solvent in 0.2 mL volume per animal. The experiment was terminated on day 27 after tumor transplantation (day 22 of treatment). Daunorubicin treated group was terminated on day 24 after tumor transplantation (day 19 of treatment) due to significant weight loss of the animals. The mice from all groups were sacrificed by cervical dislocation. Their primary tumors and livers were harvested and weighed, while metastases were counted in other organs.

[6] = tested on: subcutaneous Kaposi's sarcoma primary tumor; assay: Proliferation index (KI-67) in KS primary tumor; assay type: in vivo, mouse; conditions: percentage printed in Fig. 7a
Description: as §4, with “The experiment was terminated on day 70 after tumor transplantation (day 36 of treatment). The mice from all groups were sacrificed by cervical dislocation. Their primary tumors and livers were harvested and weighed.” left out
(§5) The routinely formalin-fixed tumors were dehydrated in a graded series of ethanol, infiltrated with xylene and embedded into paraffin at a temperature not exceeding 60 °C. […] The KI-67-positive tumor cells were counted manually per fields of vision under light microscope (400-fold magnification), and 3 fields of view per tumor were evaluated. Proliferation index was calculated as percentage of KI-67 positive cells from all cells in the field of view. The CD31-positive blood vessels were counted manually using light microscope (200-fold magnification), whereby 3 fields of view per tumor were evaluated, and blood vessel density was calculated as number of blood vessels per mm^2.

[7] = tested on: orthotopic HT-29 human colon primary tumor; assay: Proliferation index (KI-67) in HT-29 primary tumor; assay type: in vivo, mouse
Description: (§6) HT-29 human colon cancer cells were injected into SCID female mice subcutaneously (s.c.), 3 × 10^6 cells per animal in volume of 200 μL M199 medium per animal, in order to establish tumor for transplantation. After 2 weeks, the mice with palpable tumors were sacrificed by cervical dislocation, and the subcutaneous tumor was dissected out aseptically. Tumor pieces of 2 mm^3 were transplanted orthotopically, under aseptic conditions into anesthetized (narcotic mixture: tiletamine, zolazepam, xylazine, butorphanol) SCID female mice (19-25 g). A small midline incision (0.5 cm) was made and the colorectal part of the intestine was exteriorized. Serosa of the site where the tumor pieces were to be implanted were removed. […]
(§7) One group of mice were treated with free Dau (1 mg/kg body weight) on days 6, 13 and 20 after tumor transplantation. […] Their primary tumors and livers were harvested and weighed, while metastases were counted in other organs.
as §5, with “The CD31-positive blood vessels were counted manually using light microscope (200-fold magnification), whereby 3 fields of view per tumor were evaluated, and blood vessel density was calculated as number of blood vessels per mm^2.” left out

[8] = tested on: subcutaneous Kaposi's sarcoma primary tumor; assay: Vascularization (CD31 blood vessel density) in KS primary tumor; assay type: in vivo, mouse; conditions: percentage printed in Fig. 7c
Description: as §4, with “The experiment was terminated on day 70 after tumor transplantation (day 36 of treatment). The mice from all groups were sacrificed by cervical dislocation. Their primary tumors and livers were harvested and weighed.” left out
as §5

[9] = tested on: orthotopic HT-29 human colon primary tumor; assay: Vascularization (CD31 blood vessel density) in HT-29 primary tumor; assay type: in vivo, mouse; conditions: percentage printed in Fig. 7d
Description: as §6, §7
as §5, with “The CD31-positive blood vessels were counted manually using light microscope (200-fold magnification), whereby 3 fields of view per tumor were evaluated, and blood vessel density was calculated as number of blood vessels per mm^2.” left out

COc1cccc2c1C(=O)c1c(O)c3c(c(O)c1C2=O)C[C@@](O)(C(C)=O)C[C@@H]3O[C@H]1C[C@H](N)[C@H](O)[C@H](C)O1 [Dau, daunorubicin]
IC50 [1]: 100 ± 10 nM
IC50 ([2]; 24 h treatment followed by 48 h incubation in drug free medium, read-out: HT-29 (24 h) IC50): 90 ± 10 nM
IC50 ([2]; 72 h continuous treatment, read-out: HT-29 (72 h) IC50): 100 ± 10 nM
IC50 at 72 h [3]: 250 ± 60 nM
decrease of animal body weight at end of experiment ([4]; conjugates 10 mg/kg Dau content i.p. 11 treatments, day 70 after cell inoculation, 5 animals per group): 16.7%
inhibition of tumor volume compared to control ([4]; conjugates 10 mg/kg Dau content i.p. 11 treatments, end of experiment (day 70)): 18.6%
decrease of liver/body weight ratio in comparison to control ([4]; day 70, p < 0.05): 12.3%
inhibition of tumor weight compared to control ([5]; conjugates 10 mg/kg Dau content 7 treatments (day 27), free Dau 1 mg/kg 3 treatments (day 24)): 67.7%
animal body weight during treatment ([5]; conjugates 10 mg/kg Dau content i.p. 7 treatments, free Dau 1 mg/kg 3 treatments, days after tumor transplantation, 8 animals per group): significantly decreased body weight from day 17
liver/body weight ratio, percentage of control ([5]; conjugates day 27, Dau day 24): 85.5%
animals with metastases near the primary tumor, out of 8 animals ([5]; control 7 out of 8): 1
decrease of liver/body weight ratio in comparison to control ([5]; free Dau 1 mg/kg 3 treatments, p < 0.05): 14.5%
inhibition of weight of metastases in comparison to control ([5]; metastases near the primary tumor): 78.3%
tumor weight, percentage of control ([5]; percentage printed in Fig. 6b, conjugates day 27, Dau day 24): 32.3%
weight of metastases, percentage of control ([5]; percentage printed in Fig. 6d): 21.7%
proliferation index, percentage of control [6]: 98.2%
proliferation index, percentage of control ([7]; percentage printed in Fig. 7b): 88.8%
inhibition of proliferation (KI-67 proliferation index) compared to control ([7]; significant): 11.2%
blood vessel density, percentage of control [8]: 81.4%
blood vessel density, percentage of control [9]: 62.0%
